Laboratory results from patent US10538497B2, “Compounds as indoleamine 2,3-dioxygenase inhibitors” (Merck Sharp & Dohme Corp., priority 2015, dated 2020).

Experiments:
[1] = target: T1, IDO1 (Homo sapiens (Human), UniProt P14902); experiment: IDO1 Human Whole Blood Assay; assay type: cell-based; conditions: LPS and IFNγ 100 ng/mL, kynurenine by LC/MS/MS
Protocol: IDO1 Human Whole Blood Assay
LPS and IFNγ was prepared in RPMI to a 10× of final conc. (1000 ng/mL), final concentration is 100 ng/mL.
Human whole blood was drawn in sodium heparin coated tubes from healthy internal donors. Two hundred fourty μL of blood was transferred to each of the wells of a v-bottom 96 well plate. Thirty μL of compound was transferred from intermediate dilution plate, and incubated for 15 min. […] from stimulants was then transferred to blood and mixed thoroughly. Plate was covered with breathable membrane and incubated at 37° C. for overnight (18 h).
On day 2 isotope labeled standard of kunurenine and tryptophan was made in water at 10× concentration and 30 μL was added to the blood at 3 μM final concentration. The assay plates were centrifuged at 300×G for 10 min with no brake to separate plasma from red blood cells. Sixty μL of plasma samples was removed without disturbing red blood cells. Plasma was diluted with RPMI in 1:1 ratio and proteins were precipitated out with two volume of Acetonitrile. The plates was centrifuged at 4000×G for 60 min. Twenty μL of supernatant was carefully transferred to a 384 well plate contain 40 μL of 0.1% formic acid in water and analysed by LC/MS/MS.
LC/MS/MS analyses were performed using Thermo Fisher's LX4-TSQ Quantum Ultra system. This system consists of four Agilent binary high-performance liquid chromatography (HPLC) pumps and a TSQ Quantum Ultra triple quadrupole MS/MS instrument. For each sample, 5 μL were injected onto an Atlantis T3 column column (2.1 mm×150 mm, 3 μm particle size) from Waters. The mobile phase gradient pumped at 0.8 mL/min was used to elute the analytes from the column at 25° C. The elution started at 0% B increasing linearly to 25% B at 6.5 min, holding at 25% for 1 min, re-equilibrating to 10 min. Mobile phase A consisted of 0.1% formic acid in water. Mobile phase B consisted of 0.1% of formic acid in acetonitrile. Data was acquired in positive mode using a HESI interface. The operational parameters for the TSQ Quantum Ultra instrument were a spray voltage of 4000 V, capillary temperature of 380° C., vaporizer temperature 400° C., shealth gas 60 arbitrary units, Aux gas 20 arbitrary units, tube lens 85 and collision gas 1.2 mTorr. SRM chromatograms of kynurenine (Q1: 209.2>Q3:94.0) and internal standard (Q1: 215.3>Q3:98.2) were collected for 90 sec. The peak area was integrated by Xcalibur Quan software. The ratios between the kynurenine generated in the reaction and 2D6-Kynurenine spiked-in internal standard were used to generate percentage inhibition and IC50 values. Compounds were titrated and IC50's were calculated by 4 parameter sigmoidal curve fitting formula.

[2] = target: T1, IDO1; experiment: IDO1 Enzyme Assay; conditions: read-out: IDO1 Enzyme Assay, IC50; HIS-tagged recombinant IDO1, 40 nM
[3] = target: T1, IDO1; experiment: IDO1 Cellular Assay in Frozen HEK293 Cells Transiently Transfected with Human IDO1; assay type: cell-based; conditions: HEK293 cells transiently transfected with human IDO1; read-out: IDO1 HEK293 Cell Assay, IC50

T1 sequence (P14902 whole entry): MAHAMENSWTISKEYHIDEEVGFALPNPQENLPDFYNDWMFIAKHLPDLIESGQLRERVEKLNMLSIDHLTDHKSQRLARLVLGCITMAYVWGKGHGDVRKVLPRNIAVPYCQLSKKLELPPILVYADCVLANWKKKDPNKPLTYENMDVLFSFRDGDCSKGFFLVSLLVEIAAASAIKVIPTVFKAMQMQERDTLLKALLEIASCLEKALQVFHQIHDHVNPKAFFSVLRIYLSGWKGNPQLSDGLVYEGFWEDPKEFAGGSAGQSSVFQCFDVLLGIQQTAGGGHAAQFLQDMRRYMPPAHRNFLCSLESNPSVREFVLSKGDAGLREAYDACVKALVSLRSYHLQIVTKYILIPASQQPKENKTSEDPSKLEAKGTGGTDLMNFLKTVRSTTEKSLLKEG

Structure (SMILES) | IC50 [1] [nM] | IC50 [2] [nM] | IC50 [3] [nM]
O=C(CSc1nonc1/C(=N/O)Nc1ccc(F)c(Br)c1)NC[C@@H](O)CO [Example 42, (R)-2-((4-(N-(3-bromo-4-fluorophenyl)-N′-hydroxycarbamimidoyl)-1,2,5-oxadiazol-3-yl)thio)-N-(2,3-dihydroxypropyl)acetamide] | 519 | 47.7 | 59.6
NC(=O)NCCSc1nonc1/C(=N/O)Nc1ccc(F)c(Br)c1 [Example 46, N-(3-Bromo-4-fluorophenyl)-N′-hydroxy-4-((2-ureidoethyl)thio)-1,2,5-oxadiazole-3-carboximidamide] | 239 | 33.9 | 16.9
